{"source": "ChEMBL document CHEMBL1151668", "about": "“Molecular structure of terrecyclodiol: a derivative of the antifungal metabolite terrecyclic acid A from Aspergillus terreus” (1996)", "key": {"P388": {"test_system": "P388", "experiment": "Antitumor activity against mouse P388 cells", "type": "functional"}, "Phytophthora cinnamomi": {"test_system": "Phytophthora cinnamomi", "experiment": "Growth inhibition of Phytophthora cinnamomi", "type": "functional, organism-based"}}, "note": "Calls of active or inactive are those of the source. The calls are words filed in the database; no cut-off is given here.", "data": [{"smiles": "C=C1C(=O)C[C@@H]2[C@@H]3CC[C@@H](C(=O)O)[C@@]12CC3(C)C", "note": "[TERRECYCLIC ACID A]", "values": [{"measurement": "Activity", "setting": "P388", "value": "<0.5", "unit": "µg/mL"}, {"measurement": "Activity", "setting": "Phytophthora cinnamomi", "value": "Active"}]}]}
